From the SangsterLogP compilation

Assay: method code SF, from DOI: 10.1002/jps.2600650919, PMID: 966149
Conditions: pH 7.4

Row | Compound | logD
1 | CC(=O)SC1CC2=CC(=O)CCC2(C)C2CCC3(C)C(CCC34CCC(=O)O4)C12 (stereo not given) | 2.78
2 | CC12CCC(=O)C=C1CCC1C3CCC4(CCC(=O)O4)C3(C)CC3OC312 (stereo not given) | 1.96
3 | COC(=O)C1CC2=CC(=O)CCC2(C)C2CCC3(C)C(CCC34CCC(=O)O4)C12 (stereo not given) | 2.18
4 | CC12CCC(=O)C=C1CCC1C3CCC4(CCC(=O)O4)C3(C)CC(O)C12F (stereo not given) | 2.4
5 | CC12CCC(=O)C=C1C1(CC1)CC1C2CCC2(C)C1CCC21CCC(=O)O1 (stereo not given) | 3.15
6 | CC12CCC(=O)C=C1C1CC1C1C2CCC2(C)C1CCC21CCC(=O)O1 (stereo not given) | 3.08
7 | CC12CCC(=O)C=C1C=CC1C2CCC2(C)C1CCC21CCC(=O)O1 (stereo not given) | 2.68
8 | CC12CCC(=O)C=C1CC(C#N)C1C2CCC2(C)C1CCC21CCC(=O)O1 (stereo not given) | 1.67
9 | CCOC(=O)C1CC2=CC(=O)CCC2(C)C2CCC3(C)C(C4CCC(=O)O4)CCC3C12 (stereo not given) | 2.54
10 | CC(C)OC(=O)C1CC2=CC(=O)CCC2(C)C2CCC3(C)C(C4CCC(=O)O4)CCC3C12 (stereo not given) | 2.82
